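Following 48 hours of exposure in 96-well plates, responses at five concentrations were used to interpolate endpoints linearly. GI50 = concentration required for 50% inhibition of growth.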 The source made the active and inactive calls. No stated cut-off is given here; in the data, active = GI50 up to about 1.1 µM and inactive = higher.
Legend:
Experiment in all cases: inhibition of tumour cell growth, NCI panel, 48 h
DLD-1 = test system: DLD-1
MCF7 = test system: MCF7
Malme-3M = test system: Malme-3M
SK-MEL-2 = test system: SK-MEL-2
HOP-92 = test system: HOP-92
SNB-78 = test system: SNB-78
HOP-18 = test system: HOP-18
OVCAR-3 = test system: OVCAR-3
786-0 = test system: 786-0
TK-10 = test system: TK-10
M14 = test system: M14
ACHN = test system: ACHN
SR = test system: SR
DU-145 = test system: DU-145
MDA-N = test system: MDA-N
Hs-578T = test system: Hs-578T
T47D = test system: T47D
MDA-MB-231 = test system: MDA-MB-231
MDA-MB-435 = test system: MDA-MB-435
PC-3 = test system: PC-3

Measured: GI50

Cc1ccc(OP2(=O)Oc3ccc4ccccc4c3CN2c2ccc(Cl)cc2)cc1C (configuration not stated)
inactive: DLD-1 > 100 µM | MCF7 > 100 µM | Malme-3M > 100 µM | SK-MEL-2 > 100 µM | HOP-92 > 100 µM | SNB-78 > 100 µM | HOP-18 > 100 µM | OVCAR-3 > 100 µM

S=C(NCCCCCCNC(=S)Nc1c2ccccc2nc2ccccc12)Nc1c2ccccc2nc2ccccc12
inactive: DLD-1 70.1 µM | MCF7 49 µM | Malme-3M > 100 µM | SK-MEL-2 > 100 µM | HOP-92 52.4 µM | SNB-78 > 87.7 µM | HOP-18 > 100 µM | OVCAR-3 > 90.2 µM

C/C(=C\C(=O)Nc1ccc2[nH]nnc2c1)Nc1ccc2[nH]nnc2c1
inactive: 786-0 > 100 µM | TK-10 > 100 µM | DLD-1 > 100 µM | Malme-3M > 100 µM | HOP-92 > 100 µM | M14 > 100 µM | ACHN > 100 µM | SNB-78 > 100 µM | SR > 100 µM | HOP-18 > 100 µM | OVCAR-3 > 100 µM

CCOC(=O)C[n+]1ccc2c([nH]c3cc(OC)ccc32)c1C
inactive: DLD-1 > 100 µM | MCF7 > 95.5 µM | Malme-3M > 100 µM | SK-MEL-2 > 100 µM | HOP-92 > 70.3 µM | SNB-78 > 100 µM | HOP-18 > 100 µM | OVCAR-3 > 79.1 µM

O=[N+]([O-])c1ccc(-n2nnc(C3=NCCCN3)c2-c2ccc(Cl)cc2)cc1
inactive: 786-0 > 100 µM | TK-10 > 100 µM | DLD-1 > 100 µM | Malme-3M > 100 µM | SK-MEL-2 33.5 µM | HOP-92 > 100 µM | M14 54 µM | ACHN > 100 µM | SNB-78 > 100 µM | SR 29 µM | HOP-18 > 100 µM | OVCAR-3 > 100 µM

CC(C)N/C(N)=N/C#N
inactive: DLD-1 > 100 µM | Malme-3M > 100 µM | SK-MEL-2 > 100 µM | M14 > 100 µM | ACHN > 100 µM | SNB-78 > 100 µM | HOP-18 > 100 µM | OVCAR-3 > 100 µM

O=C(O)C1CCC(=O)N1S(=O)(=O)c1ccccc1 (configuration not stated)
inactive: DLD-1 > 100 µM | MCF7 > 100 µM | Malme-3M > 100 µM | SK-MEL-2 > 100 µM | HOP-92 99.1 µM | SNB-78 > 100 µM | HOP-18 > 100 µM | OVCAR-3 > 100 µM

c1ccc2cc3c(cc2c1)OP1(Oc2cccc4cccnc24)(O3)Oc2cc3ccccc3cc2O1
inactive: DLD-1 4.2 µM | MCF7 1.13 µM | Malme-3M 7.21 µM | SK-MEL-2 7.66 µM | HOP-92 3.57 µM | SNB-78 26.4 µM | HOP-18 9.48 µM | OVCAR-3 1.58 µM

CCOC(=O)CC1=N/C(=N/C(=N)N[N+](=O)[O-])SC1
inactive: 786-0 > 100 µM | TK-10 > 100 µM | DLD-1 > 100 µM | Malme-3M > 100 µM | SK-MEL-2 > 100 µM | HOP-92 > 100 µM | M14 > 100 µM | ACHN > 100 µM | SNB-78 > 100 µM | HOP-18 > 100 µM | OVCAR-3 > 100 µM

C=CC1(NC(=O)c2ccccc2)CCC(C(C)(C)C)CC1 (configuration not stated)
inactive: DLD-1 36.6 µM | MCF7 30.8 µM | Malme-3M 34.2 µM | SK-MEL-2 25.2 µM | SNB-78 39.1 µM | HOP-18 47.5 µM | OVCAR-3 29.6 µM

CSCSCC(N)CO.Cc1[nH]c(=O)[nH]c(=O)c1/C=C/C(=O)O
inactive: DLD-1 > 625 µM | MCF7 > 625 µM | Malme-3M > 625 µM | SK-MEL-2 > 625 µM | HOP-92 583 µM | SNB-78 618 µM | HOP-18 > 625 µM | OVCAR-3 > 625 µM

O=NN(CCCl)C(=O)NCCCl [CARMUSTINE]
inactive: DU-145 169 µM | 786-0 42.3 µM | MDA-N 71.3 µM | TK-10 93.1 µM | DLD-1 76.6 µM | MCF7 68.9 µM | Malme-3M 81.5 µM | SK-MEL-2 91 µM | HOP-92 65.2 µM | M14 78.7 µM | ACHN 83 µM | SNB-78 88.9 µM | Hs-578T 103 µM | SR 14 µM | T47D 110 µM | MDA-MB-231 91 µM | MDA-MB-435 75.5 µM | HOP-18 91.4 µM | OVCAR-3 83.6 µM | PC-3 97.7 µM

From ChEMBL document CHEMBL1201862, “PubChem BioAssay data set” (2004)
